For data set [1], the system named is VX-950-resistant variants of HCV. The data set can be described thus: IC50 shift of VX-950-resistant variants.
A short description of data set [2]: Oral bioavailability of VX-950 (statement). As to conditions: in vivo.
Data set [3] can be described thus: Randomized, double-blind, placebo-controlled single-dose escalation study in healthy male volunteers. The data set is classed as in vivo, human. As to conditions: single doses, 25 mg to 1250 mg. The procedure:
Doses of 25 mg to 1250 mg were evaluated.

In another data set the test system is HCV genotype 1. The data set can be described thus: Phase 1b trial, Study VX04-950-101. As to conditions: subjects infected with HCV genotype 1.
The next data set has as its system genotype 1 HCV. The note with it: PROVE 1.

“Also recorded” adds a separate entry of the source.

As for `CCC[C@H](NC(=O)[C@@H]1[C@H]2CCC[C@H]2CN1C(=O)[C@@H](NC(=O)[C@@H](NC(=O)c1cnccn1)C1CCCCC1)C(C)(C)C)C(=O)C(=O)NC1CC1` [VX-950], the “increase in IC50” value in data set [1] is given as 7-20 fold. Further, the oral bioavailability result in data set [2] is on record as “orally bioavailable”. In data set [3], the “serious / severe adverse events” value is listed as “No serious adverse events were reported; also recorded: No adverse events were considered to be severe” and the tolerability entry is listed as “well tolerated at all dose levels”. Moreover, in the data set on HCV genotype 1, the antiviral activity entry is reported as “substantial antiviral activity”. Moreover, the “pharmacokinetics of telaprevir among the different racial/ethnic groups” value in the data set on genotype 1 HCV is listed as “No differences were observed”.

These data come from patent US20100226889A1, “HCV Combination Therapies” (priority 2007, published 2010).
